Results as given in PMC7070443, “New Hybrid Pyrazole and Imidazopyrazole Antinflammatory Agents Able to Reduce ROS Production in Different Biological Targets” (Molecules, 2020).

Legend:
PDE7 = assay: Preliminary PDE selectivity evaluation; type: biochemical; details: 10 µM; data not shown
human neutrophils [1] = assay: Flow cytometric evaluation of ROS production in fMLP-activated neutrophils (DCFH-DA); type: cell-based; details: for inhibition at 10 µM: Homo sapiens, Neutrophil, DCFH-DA method, read-out: ROS production inhibition percentage
Source text: Heparinized (heparin 10 U/mL Vister, PfizerItalia, Borgo San Michele, Latina, Italy) venous blood was obtained from healthy male volunteers after written informed consent. Neutrophils were isolated by dextran sedimentation (Dextran 70.000 Plander, Fresenius Kabi Italia, Verona, Italy), and subsequent centrifugation on a Ficoll-Hypaque density gradient (Lympholyte-I from Cedarlane Laboratories Ltd. Hornby, ON, Canada), as described. Contaminating erythrocytes were removed by hypotonic lysis. Neutrophils were washed and resuspended in Hanks’balanced salt solution (HBSS; EuroCLone, Wetherby West, Yorkshire, UK) mixed with Dulbecco’s PBS (EuroClone; HBBS:PBS. Final cell suspensions contained 97% or more neutrophils and more than 98% viable cells, as evaluated by a trypan blue test kit (Sigma Aldrich).
Flow cytometric analysis of neutrophil oxidative metabolism was carried out according to literature method. Briefly, neutrophils, were cultured for 1 h with or without 4d and 5d at different concentration. Thereafter, neutrophils were pre-treated with 2′-7′-dichlorofluorescein-diacetate (DCFH-DA; Sigma, Milan, Italy) ([…]), During the incubation time, DCFH-DA entered into the cells, and it was cleaved by intracellular esterases to give non-fluorescence DCFH trapped within the cells. After washing in PBS, the cells were incubated for 15 min at room temperature in the presence or absence of N-formyl-L-methionin-L-leucyl-L-phenylalanine (fMLP; Sigma, Milan, Italy) ([…]) for 30 min at 37 °C. During this period, intracellular ROS oxidized DCFH to give a green fluorescence […]. The reaction was stopped by keeping the samples on ice before being analyzed by flow cytometry (FC500, Beckman Coulter).

PDE1 = assay: Preliminary PDE selectivity evaluation; type: biochemical; details: 10 µM; data not shown
PDE2 = PDE2 (Homo sapiens, UniProt O00408); assay: Preliminary PDE selectivity evaluation; type: biochemical; details: 10 µM; data not shown
PDE3 = assay: Preliminary PDE selectivity evaluation; type: biochemical; details: 10 µM; data not shown
human neutrophils [2] = assay: Neutrophil chemotaxis inhibition (fMLP stimulated); type: cell-based; details: data not shown
PDE5 = PDE5 (Homo sapiens, UniProt O76074); assay: Preliminary PDE selectivity evaluation; type: biochemical; details: 10 µM; data not shown
human platelets [3] = assay: ROS production inhibition in thrombin-stimulated washed platelets (DCFH-DA, flow cytometry); type: cell-based; details: for IC50: washed human platelets, 0.1 U/mL thrombin, DCFH-DA, mean +/- SD, at least six experiments in duplicate
Description: (§1) Freshly drawn venous blood from healthy volunteers of the “Centro Trasfusionale, Ospedale San Martino” in Genoa was collected into 130 mM aqueous trisodium citrate anticoagulant solution (9:1). The donors claimed to have not taken drugs known to interfere with platelet function during two weeks prior to blood collection and gave their informed consent. Washed platelets were prepared centrifuging whole blood at 100× g for 20 min. The obtained platelet-rich plasma was then centrifuged at 1100× g for 15 min. Pellet was washed once with pH 5.2 ACD solution (75 mM trisodium citrate, 42 mM citric acid and 136 mM glucose), centrifuged at 1100× g for 15 min and then re-suspended in pH 7.4 Hepes buffer (145 mM NaCl, 5 mM KCl, 1 mM MgSO4, 10 mM glucose, 10 mM HEPES).
ROS production was quantified as previously reported by DCFH-DA, a ROS-sensitive probe that yields upon oxidation the fluorescent adduct DCF that is trapped inside the cells. Briefly, washed platelets (1.0 × 10^8/mL), pre-incubated with saline, compounds 4 or 5, for 15 min at 37 °C, were stimulated by 0.1 U/mL thrombin. Incubation was stopped by cooling samples in ice bath and then samples were immediately analyzed in a Merck Millipore Bioscience Guava easyCyte flow cytometer (Merk Millipore, Burlington, MA, USA). The reported IC50 value is the molar concentration of the compound able to obtain 50% inhibition of the […] induced by the agonist and is calculated by the percentage of inhibition that is the inhibition of the […] measured in the presence of the agent compared with that measured in a control sample containing saline, carried out under the same conditions.

human neutrophils [4] = assay: Cell vitality by propidium iodide (PI) method in neutrophils; type: cell-based; details: 10 µM
Description: (§2) In the same test, cell vitality in presence of 4d (10 µM) was assessed by propidium iodide (PI) method at the end of the incubation time. In detail, in the same tubes we added PI staining solution (10 μg/mL, Invitrogen ThermoFisher Scientific, Waltham, MA, USA) to detect dead cells. PI is excited at 488 nm and, emits at a maximum wavelength of 617 nm. Because of these spectral characteristics, PI can be used in combination with other fluorochromes excited at 488 nm such as fluorescein isothiocyanate (FITC). Auto-fluorescence levels of sample were measured and subtracted from each analysis. Data were expressed as mean fluorescence intensity ((MFI), compared with the expression on cells stimulated with control medium alone (defined as 100%)).

[5] = as above; type: cell-based; details: human, human neutrophils, PI method
Description: as §2

PDE4D3 [6] = target: T1, PDE4D3 (Homo sapiens, UniProt Q08499); assay: PDE4 enzymatic assay (IMAP fluorescence polarisation); type: biochemical; details: for inhibition at 10 µM: in duplicate, read-out: inhibition of PDE4D3, preliminary test; for IC50: human recombinant enzyme
T1 construct: host or cells: Spodoptera frugiperda (Sf9), baculovirus
Description: (§3) PDE4 tests were performed by Scottish Biomedical Drug Discovery (Scottish, Biomedical Drug Discovery, Glasgow, UK) using human recombinant enzyme obtained from Spodoptera frugiperda (Sf9) cells using a baculovirus expression system (PDE enzyme at 0.5 U/mL in 20 mM Tris.HCl pH 7.4) as previously reported. IMAP technology is based on the high affinity binding of phosphate by immobilized metal coordination complexes on nanoparticles. The binding reagent complexes with phosphate groups on nucleotide monophosphate generated from cyclic nucleotides ([…]) through phosphodiesterases. With fluorescence polarisation detection, binding causes a change in the rate of the molecular motion of the phosphate bearing molecule, and results in an increase in the fluorescence polarization value observed for the fluorescent label attached to the substrate.
(§4) Title compounds 4d and 5d were solved in DMSO at 10^−2 M concentration and then diluted with water to the final suitable concentrations. All our subsequent assays were performed in 3% DMSO (final). All the compounds were tested preliminary at 10 µM concentration, in duplicate.
(§5) In all the experiments, Rolipram as reference compound (at 10 μM for PDE4B2 and 1 μM for PDE4D3) was tested at nine concentrations, in duplicate, to obtain an inhibition curve in order to validate this experiment.
(§6) Being inhibition >50%, 4d and 5d have been further tested in the same assay at five different concentrations (5 × 10^−8–10^−4 M) and IC50 values were determined by nonlinear regression analysis of the inhibition curve, using Hill equation curve fitting (Graph Pad Prism software, version 5.0a).

PDE4B2 = target: T2, PDE4B2 (Homo sapiens, UniProt Q07343); assay: as above; type: biochemical; details: for inhibition at 10 µM: in duplicate, read-out: inhibition of PDE4B2, preliminary test; for IC50: human recombinant enzyme
T2 construct: host or cells: Spodoptera frugiperda (Sf9), baculovirus
Description: as §3, §4, §5, §6

human platelets [7] = assay: Platelet aggregation inhibition (Born's method, thrombin-stimulated washed platelets); type: cell-based; details: Platelet, 0.1 U/mL thrombin, mean +/- SD, at least six experiments in duplicate
Description: as §1
Platelet aggregation was performed in a Bio-Data Aggregometer (Bio-Data Corporation, Horsham, PA, USA) according to Born’s method and quantified by the light transmission reached within 6 min at 37 °C. Briefly, washed platelets (3.0 × 10^8/mL) were pre-incubated for 3 min at 37 °C with saline, compound 4 or 5 before the addition of 0.1 U/mL thrombin. The IC50 values were calculated as above detailed.

PDE4D3 [8] = details: Figure 2; cited from earlier work

T2 sequence (Q07343 1-564 isoform Q07343-2): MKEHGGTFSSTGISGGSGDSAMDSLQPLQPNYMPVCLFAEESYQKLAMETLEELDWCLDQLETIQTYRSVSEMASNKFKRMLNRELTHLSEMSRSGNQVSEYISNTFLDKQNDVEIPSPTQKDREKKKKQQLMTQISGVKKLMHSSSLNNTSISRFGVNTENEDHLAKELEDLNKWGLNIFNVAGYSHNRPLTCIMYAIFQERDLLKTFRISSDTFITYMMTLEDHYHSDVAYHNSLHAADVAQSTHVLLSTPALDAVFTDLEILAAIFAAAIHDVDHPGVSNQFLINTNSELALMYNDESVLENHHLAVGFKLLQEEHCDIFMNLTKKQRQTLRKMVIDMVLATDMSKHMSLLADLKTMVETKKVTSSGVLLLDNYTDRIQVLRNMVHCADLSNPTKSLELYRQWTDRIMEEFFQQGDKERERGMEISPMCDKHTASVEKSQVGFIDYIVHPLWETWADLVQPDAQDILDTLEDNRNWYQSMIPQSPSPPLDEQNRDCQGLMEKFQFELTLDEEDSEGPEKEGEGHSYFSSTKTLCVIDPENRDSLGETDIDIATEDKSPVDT
T1 sequence (Q08499 1-673 isoform Q08499-2): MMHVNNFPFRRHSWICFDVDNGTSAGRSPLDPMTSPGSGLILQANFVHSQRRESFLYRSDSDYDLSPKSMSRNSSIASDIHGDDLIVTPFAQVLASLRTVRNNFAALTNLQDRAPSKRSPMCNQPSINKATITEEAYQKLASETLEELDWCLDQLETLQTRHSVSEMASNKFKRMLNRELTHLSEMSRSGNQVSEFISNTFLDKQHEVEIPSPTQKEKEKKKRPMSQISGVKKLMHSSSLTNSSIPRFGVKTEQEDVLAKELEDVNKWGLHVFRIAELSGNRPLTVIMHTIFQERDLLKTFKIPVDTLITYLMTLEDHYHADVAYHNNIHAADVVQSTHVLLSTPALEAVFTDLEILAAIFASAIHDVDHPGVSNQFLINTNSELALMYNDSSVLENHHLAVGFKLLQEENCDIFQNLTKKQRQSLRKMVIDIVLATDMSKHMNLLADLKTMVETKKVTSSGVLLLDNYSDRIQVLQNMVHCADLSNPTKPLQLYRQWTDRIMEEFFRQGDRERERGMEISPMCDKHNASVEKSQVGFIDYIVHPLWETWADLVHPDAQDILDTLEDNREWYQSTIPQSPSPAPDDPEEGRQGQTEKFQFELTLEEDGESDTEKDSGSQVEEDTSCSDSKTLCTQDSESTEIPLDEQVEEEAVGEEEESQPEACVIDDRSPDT
Chain of PDE2 (O00408 whole entry): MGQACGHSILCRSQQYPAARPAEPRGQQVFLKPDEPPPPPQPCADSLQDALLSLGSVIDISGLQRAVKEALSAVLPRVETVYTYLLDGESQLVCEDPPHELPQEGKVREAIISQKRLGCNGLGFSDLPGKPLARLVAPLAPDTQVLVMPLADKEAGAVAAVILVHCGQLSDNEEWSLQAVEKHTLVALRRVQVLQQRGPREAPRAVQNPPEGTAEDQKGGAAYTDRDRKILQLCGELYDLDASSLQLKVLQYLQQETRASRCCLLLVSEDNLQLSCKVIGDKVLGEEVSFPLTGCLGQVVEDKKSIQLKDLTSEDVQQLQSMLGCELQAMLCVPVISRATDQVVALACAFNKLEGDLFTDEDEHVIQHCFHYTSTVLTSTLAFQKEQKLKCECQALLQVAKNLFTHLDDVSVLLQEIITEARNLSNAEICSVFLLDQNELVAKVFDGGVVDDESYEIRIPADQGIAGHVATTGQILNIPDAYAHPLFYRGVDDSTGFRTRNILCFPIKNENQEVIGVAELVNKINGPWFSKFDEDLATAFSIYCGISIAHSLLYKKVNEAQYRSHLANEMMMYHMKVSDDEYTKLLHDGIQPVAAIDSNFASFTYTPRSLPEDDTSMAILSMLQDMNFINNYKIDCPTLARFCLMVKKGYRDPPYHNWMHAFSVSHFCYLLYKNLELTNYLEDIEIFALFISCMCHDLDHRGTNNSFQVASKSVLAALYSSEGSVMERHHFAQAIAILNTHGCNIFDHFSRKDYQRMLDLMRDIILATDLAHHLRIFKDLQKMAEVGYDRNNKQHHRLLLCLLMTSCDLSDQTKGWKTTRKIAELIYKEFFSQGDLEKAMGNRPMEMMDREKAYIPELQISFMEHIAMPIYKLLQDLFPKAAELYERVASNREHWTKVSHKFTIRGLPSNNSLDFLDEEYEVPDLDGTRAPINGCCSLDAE

| SMILES | inhibition at 10 µM (human neutrophils [1]) [%] | chemotaxis inhibition (human neutrophils [2]) | IC50 (human platelets [3]; Homo sapiens, Platelet) [µM] | cytotoxic action (PI method) (human neutrophils [4]) | inhibition at 10 µM (PDE4D3 [6]) [%] | IC50 (PDE4D3 [6]) [µM] | inhibition at 10 µM (PDE4B2) [%] | IC50 (PDE4B2) [µM] | IC50 (human platelets [7]) [µM] | IC50 (PDE4D3 [8]) [µM] | also measured |
| --- | --- | --- | --- | --- | --- | --- | --- | --- | --- | --- | --- |
| COc1ccc(/C=N/NC(=O)c2cnn(CC(O)c3ccccc3)c2N)cc1OC1CCCC1 (stereo not drawn) [4d, (E)-5-Amino-N′-(3-(cyclopentyloxy)-4-methoxybenzylidene)-1-(2-hydroxy-2-phenylethyl)-1H-pyrazole-4-carbohydrazide] | 68 | very low or absent | 40 | no cytotoxic action | > 50 | 1.05 | > 50 | 0.55 | 29.8 ± 3.7 |  | inhibition of PDE7 (PDE7): no inhibition; inhibition of PDE1 (PDE1): no inhibition; inhibition of PDE2 (PDE2): no inhibition; inhibition of PDE3 (PDE3): no inhibition; inhibition of PDE5 (PDE5): no inhibition; IC50 (human platelets [3]): 38.3 ± 2.8 µM; viability at 10 µM [5]: > 95% |
| COc1ccc(/C=N/NC(=O)c2cnn3c2NC(c2ccccc2)C3)cc1OC1CCCC1 (stereo not drawn) [5d, (E)-N′-(3-(cyclopentyloxy)-4-methoxybenzylidene)-2-phenyl-2,3-dihydro-1H-imidazo[1,2-b]pyrazole-7-carbohydrazide] | 63 | very low or absent | 70.6 ± 7.4 | no cytotoxic action | > 50 | 1.22 | > 50 | 0.55 | 71 ± 6.8 |  |  |
| COc1ccc(/C=N/OCC(O)CN2CC(C)OC(C)C2)cc1OC1CCCC1 (stereo not drawn) [GEBR-4a] |  |  |  |  |  |  |  |  |  | 2.8 |  |
| COc1ccc(-c2ccn(CC(O)CN3CCOCC3)n2)cc1OC1CCCC1 (stereo not drawn) [GEBR-54] |  |  |  |  |  |  |  |  |  | 7.6 |  |
| NNC(=O)c1cnn(CC(O)c2ccccc2)c1N (stereo not drawn) [compound 7, 5-Amino-1-(2-hydroxy-2-phenylethyl)-1H-pyrazole-4-carbohydrazide] |  |  |  |  |  |  |  |  |  |  | activity towards ROS production in neutrophils (in words) (human neutrophils [1]; data not shown): completely inactive; activity towards ROS production in platelets (in words) (human platelets [3]; human platelets, thrombin stimulated): completely inactive; melting point: 183 to 184 °C |
